According to patent US6420371B1, “Quinazolinone-containing pharmaceutical compositions for prevention of neovascularization and for treating malignancies” (Madasit Medical Research Services & Development Co., Ltd., priority 1997, dated 2002):
“And” between values parts separate entries of the source, which are not always exact repeats. Equal values may be shown once.

Key:
[1] = test system: bovine corneal endothelial cells; test: Incorporation of sulfate, proline, lysine and glycine into ECM (CDP and NCDP); format: cell-based; conditions: eight days after seeding
Description: Corneal endothelial cells were seeded at a confluent density and grown as described in Example 5 above. The cells were cultured with or without Halofuginone in the presence of either Na2^35SO4 (FIG. 8A), ^3H-proline (FIG. 8B), ^14C-lysine (FIG. 8C) or ^14C-glycine (FIG. […]). Eight days after seeding, the cell layer was dissolved substantially as described in Example 5 above. The underlying ECM was then either trypsinized to determine the effect of Halofuginone on incorporation of labelled material into total protein, substantially as described in Example 5 above, or subjected to sequential digestions with collagenase and trypsin to evaluate the effect of Halofuginone on both collagenase-digestible proteins (CDP) and non-collagenase digestible proteins (NCDP).

[2] = test system: corneal neovascularization; test: Murine corneal angiogenesis model (bFGF pellet); format: in vivo, mice; parameters: VL (maximum vessel length of the neovascularization zone): unit not given here; conditions: 2 μg/mouse/day i.p. for 5 days
Description: A murine corneal angiogenesis model was used to evaluate the inhibitory effect of Halofuginone in vivo. The angiogenic factor bFGF was applied into a corneal pocket in a pellet made of a slow release polymer, as described below, and Halofuginone (2 μg/mouse/day) was administered i.p. for 5 consecutive days. The pellets were made of the slow-release polymer Hydron (polyhydroxyethylmethacrylate [polyHEMA], Interferon Sciences, N.J.) containing sucralfate alone, or sucralfate and bGFG. A suspension of sterile saline 10 μg recombinant bFGF plus 10 mg of sucralfate was prepared and speed vacuumed for 5 minutes. To this suspension, 10 μl of 12% Hydron in ethanol was added. The suspension was then deposited onto an autoclave sterilized, 15×15 mm piece of nylon mesh (TETKO, 3-300/50, approximate pore size 0.4×0.4 mm) and embedded between the fibers resulting in a grid of 10×10 squares. Both sides of the mesh were then covered with a thin layer of Hydron to hydrophobically stabilize the pellet during implantation. These layers were allowed to dry on a sterile petri dish for 30 minutes. Subsequently, the fibers of the mesh were pulled apart under a microscope, and about 30-40 uniformly sized pellets of 0.4×0.2×0.2 mm, containing approximately 80-100 ng bGFG per pellet, were collected. Such pellets can be stored frozen at −20° C. for several weeks without loss of bioactivity. C57B⅙ mice of about 7-9 weeks of age were anesthetized with methoxyflurane. The eyes were topically anesthetized with 0.5% proparacaine, and the globe was proposed with a jeweler's forceps. A central, intrastromal linear keratotomy of approximately 0.6 mm length was performed with a surgical blade and a lamellar micropocket was dissected towards the temporal limbus. The temporal extent of the packet was within 0.7-1.0 mm of the limbus. A single pellet was then placed on the corneal surface at the base of the pocket with jeweler's forceps, and using one arm of the forceps, the pellet was advanced toward the temporal end of the pocket. Antibiotic ointment (erythromycin) was applied once to the operated eye, not only to prevent infection, but also to decrease irritation of the irregular ocular surface. […] On post-operative day 5, mice were anesthetized with methoxyflurane, the eyes were proptosed, and the maximum vessel length (VL) of the neovascularization zone extending from the base of the limbal vascular plexus toward the pellet was measured with a linear reticule through the slit lamp. The contiguous circumferential zone of neovascularization (CH) was measured as clock hours with a 360 degree reticule. […] The area of neovascularization was calculated according to the following formula: [formula] where A is area, CH is contiguous circumferential zone of neovascularization and VL is maximal vessel length.

[3] = test system: human leiomyosarcoma tumor cells; test: Proliferation ([3H]thymidine incorporation) of human leiomyosarcoma tumor cells; format: cell-based
Description: Samples of human leiomyosarcoma tumors were obtained from women undergoing surgical hysterectomy, as described [R. S. Mangrulker, et al., ibid.]. Minced tissue was placed into 20 ml cold homogenization buffer: 1 M NaCl, 10 mM Tris (pH 7.4), 1 mM EDTA, 1 mM benzamidine, 0.1% CHAPS, 0.01% Aprotinin (Sigma), 10 μg/ml leupeptin, 1 mM AEBSF [R. S. Mangrulker, et al., ibid]. Samples were homogenized for 2 min and centrifuged at 12000 a g for 60 min at 4° C. The supernatants were diluted 1:5 with 10 mM Tris (pH 7.4) to a final volume of 100 ml and filtered with 0.45 μm nylon fibers. Cells were plated and maintained in DMEM plus 10% calf serum. The cells remained viable over a number of passages but were used at passages 2 or 3. For proliferation assays, cells were plated in 96-well plates at 10,000 cells/well an 200 μl medium (DMEM with 4.5 G/L glucose, 10% calf serum. 1% glutamine, 1% penicillin/streptomycin) and incubated 2 days until confluent. […] The medium was changed to DMEM with 0.5%calf serum, 1 μM insulin and 5 μM transferrin. After 24 h, the samples (5-10 μl) were added and after an additional 24 h, [^3H]thymidine (1 μCi/well) was added to each well. After 36-48 h incubation, the cells were fixed with methanol, and the DNA was precipitated with 5% trichloroacetic acid. The cells were lysed with 150 μl/well of 0.3 N NaOH, transferred to scintillation vials, and counted on a β-counter. […] The effect of Halofuginone on proliferation of HB-EGF (Heparin-Binding Epidermal Growth Factor) and serum-stimulated leiomyosarcoma cells was then examined. The leiomyosarcoma tumor cells were growth-arrested by 48 h incubation in medium containing 0.5% FCS. The cells were then exposed (24 h) to either 10% FCS or 10 ng/ml HB-EGF in the absence or presence of 10 ng/ml Halofuginone. [^3H]thymidine was then added and DNA synthesis measured 36 h later.

tumor cells = test: Tunnel staining of histological tumor sections (necrosis and apoptosis); format: in vivo; conditions: tumors from halofuginone treated mice, FIG. 1F panel B
Text: Histological sections of the tumors were subjected to tunnel staining [Gavrieli, Y. et al., J. Cell Biol., Vol. 119, pp. 493-501, 1992], in order to evaluate the extent of tumor cell necrosis and apoptosis. […] The high degree of cell apoptosis and necrosis in halofuginone treated tumors is in all likelihood due to an inhibition of angiogenesis and […] deposition, both critical factors supporting growth and survival of the tumor cells.

3T3 fibroblast cells = conditions: in vitro; cited from earlier work
collagen type I = conditions: in vitro; cited from earlier work
[4] = individual mice, post-operative day 5

O=C(CC1NCCCC1O)Cn1cnc2cc(Br)c(Cl)cc2c1=O (centres unmarked) [Halofuginone]
incorporation of sulfate, proline, lysine and glycine into both CDP and NCDP [1]: inhibited
inhibition of neovascularization area vs control [2]: about 29%
average area of neovascularization ([2]; n=7, calculated from CH and VL): 1.90 mm^2
CH (contiguous circumferential zone of neovascularization) [2, 4]: 3.5 clock hours and 3 clock hours (3×) and 2.5 clock hours and 4 clock hours and 1 clock hours
VL (maximum vessel length of the neovascularization zone) [2, 4]: 1 (3×) and 1.1 and 1.2 and 0.9
inhibition of cell proliferation induced by HB-EGF ([3]; 10 ng/ml HB-EGF, 10 ng/ml Halofuginone, growth-arrested cells): complete inhibition
inhibition of cell proliferation induced by serum ([3]; 10% FCS, 10 ng/ml Halofuginone, growth-arrested cells): complete inhibition
inhibition at 0.0025 µg/mL ([3]; Homo sapiens, 2.5 ng/ml Halofuginone (FIG. 11A)): 60 to 70%
tunnel staining of tumor sections (cell apoptosis and necrosis) (tumor cells): majority of cells in tumor sections derived from halofuginone treated mice exhibited an intense staining
proliferation of 3T3 fibroblast cells (3T3 fibroblast cells): inhibit the proliferation
synthesis of collagen type I in bone chondrocytes (collagen type I): inhibits the synthesis of collagen type I
